From patent publication US4330542A, “N(Sulfonyl)anilines for treating angina pectoris” (Sanofi, priority 1979, dated 1982)

How the values were obtained:
[1] = Heart-rate in anaesthetized atropinized dogs after intravenous injection; type: in vivo; settings: anaesthetized atropinized dog, 10 mg/kg intravenous
Method: (§1) The pharmacological investigation was carried out on anaesthetized dogs (30 mg/kg I.V. of sodium pentobarbital) having previously received an intravenous dose of 1 mg/kg of atropine sulphate.
(§2) The substance to be tested was given by an intravenous injection lasting two minutes after which the behaviour of both heart-rate and blood-pressure was observed over a certain period of time. An investigation was then carried out to detect any antiadrenergic properties. The compound listed hereunder were tested, in most cases in the form of pharmaceutically acceptable acid addition salts: […]

α-system [2] = assay: Inhibitory effect on the α-system: reduction of epinephrine-increased blood-pressure in the atropinized dog; type: in vivo; settings: anaesthetized atropinized dog, 10 mg/kg intravenous
Method: (§3) A dose of epinephrine, sufficient to produce a stable increase in blood-pressure was administered to a dog anaesthetized with sodium pentobarbital which had previously received an intravenous injection of 1 mg/kg of atropine sulphate. The operation was repeated several times and the blood-pressure obtained was noted. When the latter had returned to its normal level, the animal was given an intravenous dose of 10 mg/kg of the compound to be tested followed by the same dose as above of epinephrine.

[3] = Blood-pressure in anaesthetized atropinized dogs after intravenous injection; type: in vivo; settings: anaesthetized atropinized dog, 10 mg/kg intravenous
Method: as §1, §2

α-system [4] = assay: Inhibitory effect on the α-system: reduction of epinephrine-increased blood-pressure in the atropinized dog; type: in vivo; settings: anaesthetized atropinized dog, dose as low as 2 mg/kg
β-system = assay: Antiadrenergic effect on the β-system: reduction of isoprenaline-increased heart-rate in the dog; type: in vivo; settings: anaesthetized atropinized dog, same method as epinephrine test (10 mg/kg intravenous)
Method: as §3
The antiadrenergic effects of the compounds of the invention on the β-system were also studied, by determining the degree to which they reduced isoprenaline-increased heart-rate. The same method as above was used.

[5] = Acute toxicity in the rat, intravenous route; settings: in vivo
Method: Acute toxicity tests were also carried out on the rat, by intravenous route.

With `C=CCOc1ccccc1N(CC(O)CN1CCN(c2ccccc2F)CC1)S(=O)(=O)c1ccc(OC)cc1` (centres unmarked) [Compound 57, 2-Allyloxy-N-[2-hydroxy-3-(4-(2-fluoro-phenyl)-1-piperazinyl)-propyl]-N-(4-methoxy-benzenesulphonyl)-aniline] the reduction in heart-rate [1] was “marked and long-lasting reduction in heart-rate” and the “reduction of epinephrine-induced arterial hypertension” value (α-system [2]) was “reduced, at least partially, the epinephrine-induced arterial hypertension”.

For `COc1ccccc1N1CCN(CC(O)CN(c2ccc(CC(N)=O)cc2)S(=O)(=O)c2ccc(C)cc2)CC1` (centres unmarked) [Compound 105, N-[2-hydroxy-3-(4-(2-methoxy-phenyl)-1-piperazino)-propyl]-N-(4-methyl-benzenesulphonyl)-4-amino-phenylacetamide], the “reduction of epinephrine-induced arterial hypertension” value (α-system [2]) was “reduced, at least partially, the epinephrine-induced arterial hypertension” and the reduction in blood-pressure [3] was “marked and constant reduction in blood-pressure”.

In the case of `CS(=O)(=O)N(CC(O)CN1CCN(c2ccccc2Cl)CC1)c1ccc(Cl)c(Cl)c1` (centres unmarked) [Compound 75, 3,4-Dichloro-N-[3-(4-(2-chloro-phenyl)-1-piperazinyl)-2-hydroxy-propyl]-N-methylsulphonyl-aniline], the “reduction of epinephrine-induced arterial hypertension” value (α-system [2]) is reported as “reduced, at least partially, the epinephrine-induced arterial hypertension” and the reduction in blood-pressure [3] is reported as “marked and constant reduction in blood-pressure”.

For `COc1ccccc1N1CCN(CC(O)CN(c2ccc(NC(C)=O)cc2)S(=O)(=O)c2ccc(C)cc2)CC1` (centres unmarked) [Compound 94, 4-Acetylamino-N-[2-hydroxy-3-(4-(2-methoxy-phenyl)-1-piperazinyl)-propyl]-N-(4-methyl-benzenesulphonyl)-aniline], the reduction in heart-rate [1] was “marked and long-lasting reduction in heart-rate”, the “reduction of epinephrine-induced arterial hypertension” value (α-system [2]) was “reduced, at least partially, the epinephrine-induced arterial hypertension” and the reduction in blood-pressure [3] was “marked and constant reduction in blood-pressure”.

In the case of “N-[3-(4-(4-chlorophenyl)-1-piperazinyl)-2-hydroxy-propyl]-N-methylsulphonyl-4-amino-phenylacetamide [Compound 99]”, the “reduction of epinephrine-induced arterial hypertension” value (α-system [2]) is reported as “reduced, at least partially, the epinephrine-induced arterial hypertension”.

In the case of `C=CCOc1ccccc1N(CC(O)CN1CCN(c2ccccn2)CC1)S(=O)(=O)c1ccc(OC)cc1` (centres unmarked) [Compound 53, 2-Allyloxy-N-[2-hydroxy-3-(4-(2-pyridyl)-1-piperazinyl)-propyl]-N-(4-methoxy-benzenesulphonyl)-aniline], the “reduction of epinephrine-induced arterial hypertension” value (α-system [2]) is reported as “reduced, at least partially, the epinephrine-induced arterial hypertension” and the reduction in blood-pressure [3] is reported as “marked and constant reduction in blood-pressure”.

For “N-[2-hydroxy-3-(4-(2-methoxy-phenyl)-1-piperazinyl)-propyl]-N-methylsulphonyl-4-amino-phenylacetamide [Compound 102]”, the reduction in heart-rate [1] was “marked and long-lasting reduction in heart-rate”, the “reduction of epinephrine-induced arterial hypertension” value (α-system [2]) was “reduced, at least partially, the epinephrine-induced arterial hypertension” and the reduction in blood-pressure [3] was “marked and constant reduction in blood-pressure”. For the same compound, the “reduction of epinephrine-induced arterial hypertension at low dose” value (α-system [4]) was “Long-lasting and total reduction”.

For `COc1ccccc1N1CCN(CC(O)CN(c2ccc(NC(C)=O)cc2)S(C)(=O)=O)CC1` (centres unmarked) [Compound 90, 4-Acetylamino-N-[2-hydroxy-3-(4-(2-methoxy-phenyl)1-piperazinyl)-2-hydroxy-propyl]-N-methyl-sulphonyl-aniline], the “reduction of epinephrine-induced arterial hypertension” value (α-system [2]) was “reduced, at least partially, the epinephrine-induced arterial hypertension” and the reduction in blood-pressure [3] was “marked and constant reduction in blood-pressure”.

For `COc1ccccc1N1CCN(CC(O)CN(c2ccc(Cl)c(Cl)c2)S(C)(=O)=O)CC1` (centres unmarked) [Compound 77, 3,4-Dichloro-N-[2-hydroxy-3-(4-(2-methoxy-phenyl)-1-piperazinyl)-propyl]-N-methylsulphonyl-aniline], the reduction in heart-rate [1] was “marked and long-lasting reduction in heart-rate”, the “reduction of epinephrine-induced arterial hypertension” value (α-system [2]) was “reduced, at least partially, the epinephrine-induced arterial hypertension” and the reduction in blood-pressure [3] was “marked and constant reduction in blood-pressure”.

In the case of `CC(=O)Nc1ccc(N(CC(O)CN2CCN(c3ccccc3)CC2)S(C)(=O)=O)cc1` (centres unmarked) [Compound 88, 4-Acetylamino-N-[2-hydroxy-3-(4-phenyl-1-piperazinyl)-propyl]-N-methylsulphonyl-aniline], the “reduction of epinephrine-induced arterial hypertension” value (α-system [2]) is reported as “reduced, at least partially, the epinephrine-induced arterial hypertension”, the reduction in blood-pressure [3] is reported as “marked and constant reduction in blood-pressure” and the “reduction in isoprenaline-increased heart-rate” value (β-system) is reported as “marked reduction in the isoprenaline-increased heart-rate”.

With `COc1ccc(S(=O)(=O)N(CC(O)CN2CCN(c3ccc(Cl)cc3)CC2)c2ccc(Cl)c(Cl)c2)cc1` (centres unmarked) [Compound 84, 3,4-Dichloro-N-[3-(4-(4-chloro-phenyl)-1-piperazinyl)-2-hydroxy-propyl]-N-(4-methoxy-benzenesulphonyl)-aniline] the reduction in heart-rate [1] was “marked and long-lasting reduction in heart-rate” and the “reduction of epinephrine-induced arterial hypertension” value (α-system [2]) was “reduced, at least partially, the epinephrine-induced arterial hypertension”.

For `C=CCOc1ccccc1N(CC(O)CN1CCN(Cc2ccccc2)CC1)S(=O)(=O)c1ccc(C)cc1` (centres unmarked) [Compound 40, 2-Allyloxy-N-[3-(4-benzyl-1-piperazinyl)-2-hydroxy-propyl]-N-(4-methylbenzene-sulphonyl)-aniline], the reduction in heart-rate [1] was “marked and long-lasting reduction in heart-rate”, the “reduction of epinephrine-induced arterial hypertension” value (α-system [2]) was “reduced, at least partially, the epinephrine-induced arterial hypertension” and the reduction in blood-pressure [3] was “marked and constant reduction in blood-pressure”. The “reduction in isoprenaline-increased heart-rate” value (β-system) was “marked reduction in the isoprenaline-increased heart-rate” and the LD50 [5] was 12 mg/kg.

With `CC(=O)Nc1ccc(N(CC(O)CN2CCN(c3ccccc3Cl)CC2)S(=O)(=O)c2ccc(C)cc2)cc1` (centres unmarked) [Compound 95, 4-Acetylamino-N-[3-(4-(2-chloro-phenyl)-1-piperazinyl)-2-hydroxy-propyl]-N-(4-methyl-benzenesulphonyl)-aniline] the reduction in blood-pressure [3] was “marked and constant reduction in blood-pressure”.

In the case of `C=CCOc1ccccc1N(CC(O)CNC(C)(C)C)S(=O)(=O)c1ccc(OC)cc1` (centres unmarked) [Compound 14, 2-Allyloxy-N-(3-tert-butylamino-2 hydroxy-propyl)-N-(4-methoxy-benzenesulphonyl)-aniline], the reduction in heart-rate [1] is reported as “marked and long-lasting reduction in heart-rate”, the “reduction of epinephrine-induced arterial hypertension” value (α-system [2]) is reported as “reduced, at least partially, the epinephrine-induced arterial hypertension” and the “reduction in isoprenaline-increased heart-rate” value (β-system) is reported as “marked reduction in the isoprenaline-increased heart-rate”.

For `C=CCOc1ccccc1N(CC(O)CN1CCN(c2ccccc2OC)CC1)S(C)(=O)=O` (centres unmarked) [Compound 30, 2-Allyloxy-N-[2-hydroxy-3-(4-(2-methoxy-phenyl)-1-piperazinyl)-propyl]-N-methylsulphonyl-aniline], the “reduction of epinephrine-induced arterial hypertension” value (α-system [2]) was “reduced, at least partially, the epinephrine-induced arterial hypertension”, the reduction in blood-pressure [3] was “marked and constant reduction in blood-pressure” and the “reduction in isoprenaline-increased heart-rate” value (β-system) was “marked reduction in the isoprenaline-increased heart-rate”. For the same compound, the “reduction of epinephrine-induced arterial hypertension at low dose” value (α-system [4]) was “Long-lasting and total reduction”.

For `CC(=O)Nc1ccc(N(CC(O)CN2CCN(c3ccccc3)CC2)S(=O)(=O)c2ccc(C)cc2)cc1` (centres unmarked) [Compound 91, 4-Acetylamino-N-[2-hydroxy-3-(4-phenyl-1-piperazinyl)-propyl]-N-(4-methyl-benzenesulphonyl)-aniline], the reduction in heart-rate [1] was “marked and long-lasting reduction in heart-rate”, the “reduction of epinephrine-induced arterial hypertension” value (α-system [2]) was “reduced, at least partially, the epinephrine-induced arterial hypertension” and the reduction in blood-pressure [3] was “marked and constant reduction in blood-pressure”.

In the case of `C=CCOc1ccccc1N(CC(O)CN1CCN(c2ccc(F)cc2)CC1)S(C)(=O)=O` (centres unmarked) [Compound 23, 2-Allyloxy-N-[3-(4-(4-fluoro-phenyl)-1-piperazinyl)-2-hydroxy-propyl]-N-methylsulphonyl-aniline], the “reduction of epinephrine-induced arterial hypertension” value (α-system [2]) is reported as “reduced, at least partially, the epinephrine-induced arterial hypertension” and the reduction in blood-pressure [3] is reported as “marked and constant reduction in blood-pressure”.
